Results on twelve compounds are retold here after US20230414771A1, “PREPARATION AND USE OF IMMUNOSTIMULATORY CONJUGATED COMPLEXES FOR TARGETED DELIVERY AND ACTIVATION” (YAFEI SHANGHAI BIOLOGY MEDICINE SCIENCE & TECHNOLOGY CO., …, priority 2020, published 2023).

Structures are written as SMILES. Like-named read-outs stand apart in the source and are kept apart here. Where a SMILES comes first, the peptide text is derived from it. The star is where a group is joined. Doxorubicin(3'-N) = COc1cccc2c1C(=O)c1c(O)c3c(c(O)c1C2=O)C[C@@](O)(C(=O)CO)C[C@@H]3O[C@H]1C[C@H](N*)[C@H](O)[C@H](C)O1; Hexanoyl(6-maleimido) = O=C1C=CC(=O)N1CCCCCC(=O)*; X1 = O=C1C=CC(=O)N1CCOCCOCCOCCC(=O)*; X3 = O=C1C=CC(=O)N1CCOCCOCCC(=O)*; MeOCH2CH2OCH2CO = COCCOCC(=O)*

Data set [1] relates to Human hepatoma HepG2 cells. In words: Human liver cancer HepG2 tumors in nude mice. The note with it: for inhibition in vivo at 54 µmol/kg: HepG2, iv, 672 h. It is filed as in vivo. The method, then: • 1. Animals: nude mice aged 6-8 weeks, all female. • 2. Preparation of tumor models
Human hepatoma HepG2 cells were purchased from ATCC and identified according to the instructions provided. […] Randomization was performed when the tumor size reached 100 mm^3.
Treatment was then initiated, and the day of initiation of treatment was counted as Day 1. • 3) Treatment process
According to the clinical application of the corresponding compound, the drug was administered intravenously (IV). The compound and the control drug were administered at a dose of 54 umol/kg, and DOX could only be administered at a dose of 18 umol/kg due to toxicity limitations.

The test system of a further data set is HT1080 tumors. The data set is described as follows: HT1080 tumor model in nude mice, 36 umol/kg. It is filed as in vivo. The note with it: for inhibition in vivo at 36 µmol/kg: Mus musculus, read-out: Tumor inhibition rate Day 28. As to the method:
• 1. Animals: nude mice aged 6-8 weeks, all female. • 2. Preparation of tumor models • 1) HT1080 cells were purchased from ATCC and characterized according to the instructions provided. […] Randomization was performed when the tumor size reached 100 mm^3. Treatment was then initiated, and the day of initiation of treatment was counted as Day 1. • 3) Treatment process
According to the clinical application of the corresponding compound, the drug was administered intravenously (IV). The compounds indicated in the table were administered at a low dose and at the same dose of 36 umol/kg.

The next data set concerns CT26 tumor cells. The data set is described as follows: MTT assay of N-CBP and HSA-QHL-095-N-CBP. Format: cell-based. As to conditions: 48 hours, CT26 tumor cells and CD8+ T cells seeded. As to the method: After counting the separated and cultured cells, adjust the cell concentration with culture medium, inoculate the cells on a 96-well culture plate with 100 μl cell suspension per well, 100000 cells/well of CD8+ T cells and 20000 cells/well of CT26 tumor cells. The 96-well plate was incubated overnight for 24 hour at 37° C. in a carbon dioxide (5%) incubator. After 24 hours, 100 ul of cell culture medium containing different concentrations of drugs was added to the 96-well culture plate, and control wells (0.1% DMSO) without drugs but with corresponding drug solvent were set, and blank wells (Blank) with medium but without cells were set. Each set was prepared in triplicate and the plates were incubated for 48 hours at 37° C. in a 5% CO2 incubator. After 48 hours, 20 μl MTT (5 mg/ml) was added to each well and the incubation was continued for 4 hours. The culture medium was then gently aspirated, and 150 μl DMSO was added to each well as solvent for dissolution. After dissolution, the absorbance at 490 nm was measured with a microplate reader.

Data set [2] is described as follows: Water solubility test (observation and HPLC). It is filed as physicochemical. The note with it: thermodynamic from solid. As to the method:
The compounds prepared in accordance with the examples of the disclosure and the reference compounds C1, C2, C3 and C4 were lyophilized (−70° C.).

For a further data set, the system named is M2 macrophages. In words: Cytotoxicity screening, inhibition rate of M2 macrophages at 10 uM. The note with it: 10 uM drug per well, 3 wells, relative to the drug-free group. Format: cell-based, C57BL/6 mice. As to the method:
After the cell count in Example 13, the cell concentration was adjusted with the culture medium, and the cells were seeded in a 96-well culture plate at […] of cell suspension per well, wherein the seeding concentration of CD8+ T cells was 100000 cells/well, and the seeding concentration of M2 macrophages was 20000 cells/well. The 96-well plate was incubated overnight for 24 hour at 37° C. in a carbon dioxide (5%) incubator. After 24 hours, 100 ul of cell culture solutions containing different concentrations of drugs were added to the 96-well culture plate. At the same time, a control well (0.1% DMSO) with no drug added and only the corresponding drug solvent and a zero-adjusted well (Blank) with only medium and no cells added was set. Each set was prepared in triplicate and the plates were incubated for 48 hours at 37° C. in a 5% CO2 incubator. After 48 hours, 20 μl MTT (5 mg/ml) was added to each well and the incubation was continued for 4 hours. The culture medium was then gently aspirated, and 150 μl DMSO was added to each well as solvent for dissolution. After dissolution, the absorbance at 490 nm was measured with a microplate reader.
Cytotoxicity screening experiments for some compounds were performed for M2 macrophage inhibition as in embodiment 14.

Data set [3] has as its system acidified human breast cancer (MDA-MB435) tumor tissue homogenate. The data set is described as follows: Activation efficiency of S-C-A linkers in tumor tissue homogenate, HPLC. The note with it: C is AAN, 1 mg/ml, homogenate pH 6.0, 37° C. Format: biochemical. The method, then:
When C is AAN, the activation of the different S-C-A linkers and the control linker is evaluated in an activation assay. They were dissolved and diluted tenfold using S-C-A conjugates to a concentration of 0.1 mM/ml. The sample compounds were added at a concentration of 1 mg/ml to 100 μg of acidified human breast cancer (MDA—MB435) tumor tissue homogenate (pH 6.0) at 37° C. The enzyme in the tumor tissue homogenate was released and detected by HPLC to compare the efficiency of activation of the linker by the tumor tissue.
The effect of the D-type tripeptide on the activation efficiency was examined in comparison to the native peptide sequence linker cleaved by Legumain, S1 in MI-S is —CH2CH2—CONH—, S2: 2 peg.

Where [4] appears, read: Mus musculus, read-out: Tumor inhibition rate (%) Day 28.
[5] abbreviates: 54 umol/kg IV once a week for 4 weeks.
Where [6] appears, read: 36 umol/kg IV once a week for 3 weeks.

As to `COc1cccc2c1C(=O)c1c(O)c3c(c(O)c1C2=O)C[C@@](O)(C(=O)CO)C[C@@H]3O[C@H]1C[C@H](NC(=O)[C@H](CC(C)C)NC(=O)[C@H](CC(N)=O)NC(=O)[C@H](C)NC(=O)[C@H](C)NC(=O)[C@H](CCC(=O)O)NC(=O)CCCCCN2C(=O)C=CC2=O)[C@H](O)[C@H](C)O1` [QHL-117-DOX] ({Hexanoyl(6-maleimido)}-EAANL-{Doxorubicin(3'-N)}), the inhibition in vivo at 54 µmol/kg in data set [1] (setting [4]) came to 100%. In the data set on HT1080 tumors (HT-1080, iv, 672 h), the inhibition in vivo at 36 µmol/kg is 100%.

Regarding `[NH3+][Pt-2]1([NH3+])[O]C(=O)C2(CNC2)C(=O)[O]1` [N-CBP], in the data set with CT26 tumor cells, the “in vitro cytotoxicity (FIGS. 13 and 14)” value was “stronger than carboplatin and oxaliplatin and weaker than cisplatin”.

`CC(NC(=O)CCOCCOCCOCCOCCNC(=O)CCN1C(=O)C=CC1=O)C(=O)NC(C)C(=O)NC(CC(N)=O)C(=O)Nc1ccc(COC(=O)N2CC3(C2)C(=O)[O][Pt-2]([NH3+])([NH3+])[O]C3=O)cc1` (centres unmarked) [QHL-092-N-CBP] came in with a solubility in data set [2] above 10000 µg/mL. For the same compound, the “Inhibition rate of M2 macrophages” value with M2 macrophages amounted to 75.8%.

For `COc1cccc2c1C(=O)c1c(O)c3c(c(O)c1C2=O)C[C@@](O)(C(=O)CO)C[C@@H]3O[C@H]1C[C@H](NC(=O)[C@H](CC(C)C)NC(=O)[C@H](CC(N)=O)NC(=O)[C@H](C)NC(=O)[C@H](C)N)[C@H](O)[C@H](C)O1` [AANL-DOX, reference compound] (H-AANL-{Doxorubicin(3'-N)}), the “Tumor volume (mm^3) Day 28” value in data set [1] (setting [5]) was 1564 ± 689.4 mm^3; in the data set on HT1080 tumors (setting [6]), 318.5 ± 197.6 mm^3. Further, the inhibition in vivo at 54 µmol/kg in data set [1] (setting [4]) stood at 46%. For the same compound, the “Activation efficiency (%)” value in data set [3] (Table 2-1) turned out to be 42.1%. Also, the inhibition in vivo at 36 µmol/kg with HT1080 tumors (HT-1080, iv, 672 h) came to 81.8%. Also, in the data set on M2 macrophages, the “Inhibition rate of M2 macrophages” value amounted to 16.9%.

Consider `CC(NC(=O)CCCN1C(=O)C=CC1=O)C(=O)NC(C)C(=O)NC(CC(N)=O)C(=O)Nc1ccc(COC(=O)N2CC3(C2)C(=O)[O][Pt-2]([NH3+])([NH3+])[O]C3=O)cc1` (centres unmarked) [QHL-143-N-CBP], for which the solubility in data set [2] is above 10000 µg/mL. For the same compound, the “Inhibition rate of M2 macrophages” value in the data set on M2 macrophages amounted to 78.4%.

`COCCOCC(=O)N[C@@H](C)C(=O)N[C@@H](C)C(=O)N[C@@H](CC(N)=O)C(=O)N[C@@H](CC(C)C)C(=O)N[C@H]1C[C@H](O[C@H]2C[C@](O)(C(=O)CO)Cc3c(O)c4c(c(O)c32)C(=O)c2c(OC)cccc2C4=O)O[C@@H](C)[C@H]1O` [C4 PEG-AANL-DOX, reference compound] (MeOCH2CH2OCH2CO-AANL-{Doxorubicin(3'-N)}): in data set [1] (setting [5]), the “Tumor volume (mm^3) Day 28” value came to 848.7 ± 347.5 mm^3. In data set [1] (setting [4]), the inhibition in vivo at 54 µmol/kg was 70.7%. In data set [2], this compound gave a solubility below 5000 µg/mL. Also, the “Activation efficiency (%)” value in data set [3] (Table 2-3) amounted to 66.9%. Also, the “Inhibition rate of M2 macrophages” value with M2 macrophages is 10.5%.

As to `COc1cccc2c1C(=O)c1c(O)c3c(c(O)c1C2=O)C[C@@](O)(C(=O)CO)C[C@@H]3O[C@H]1C[C@H](NC(=O)[C@H](CC(C)C)NC(=O)[C@H](CC(N)=O)NC(=O)[C@H](C)NC(=O)[C@H](C)NC(=O)[C@H](CCC(=O)O)NC(=O)CCOCCOCCN2C(=O)C=CC2=O)[C@H](O)[C@H](C)O1` [QHL-021-DOX] (X3-EAANL-{Doxorubicin(3'-N)}), the “Inhibition rate of M2 macrophages” value in the data set on M2 macrophages is given as 68.6%.

`CC(NC(=O)CCOCCOCCOCCOCCOCCOCCNC(=O)CCN1C(=O)C=CC1=O)C(=O)NC(C)C(=O)NC(CC(N)=O)C(=O)Nc1ccc(COC(=O)N2CC3(C2)C(=O)[O][Pt-2]([NH3+])([NH3+])[O]C3=O)cc1` (centres unmarked) [QHL-095-N-CBP] returned a solubility in data set [2] above 10000 µg/mL. In addition, the “Inhibition rate of M2 macrophages” value in the data set on M2 macrophages was 68.7%.

`CC(NC(=O)CCOCCOCCOCCNC(=O)CCN1C(=O)C=CC1=O)C(=O)NC(C)C(=O)NC(CC(N)=O)C(=O)Nc1ccc(COC(=O)N2CC3(C2)C(=O)[O][Pt-2]([NH3+])([NH3+])[O]C3=O)cc1` (centres unmarked) [QHL-089-N-CBP] had a solubility in data set [2] above 10000 µg/mL. For the same compound, the “Inhibition rate of M2 macrophages” value with M2 macrophages is 97.4%.

In the case of `COc1cccc2c1C(=O)c1c(O)c3c(c(O)c1C2=O)C[C@@](O)(C(=O)CO)C[C@@H]3O[C@H]1C[C@H](N)[C@H](O)[C@H](C)O1` [DOX, doxorubicin, reference compound], the entries for the “Tumor volume (mm^3) Day 28” value (in data set [1] (DOX 18 umol/kg IV (toxicity limitations)); with HT1080 tumors (setting [6])) were 1683.4 ± 1087.4 mm^3 and 754.4 ± 587.4 mm^3, respectively. Besides, in data set [1] (Mus musculus, HepG2, 672 h, DOX 18 umol/kg IV (toxicity limitations), read-out: Tumor inhibition rate (%) Day 28), the inhibition in vivo at 18 µmol/kg was found to be 41.9%. In addition, the inhibition in vivo at 36 µmol/kg in the data set with HT1080 tumors (HT-1080, 672 h, 36 umol/kg IV once a week for 3 weeks) came to 56.8%. The compound further yielded an inhibition at 10 µM in the data set on M2 macrophages (Mus musculus, Macrophage) of 12.6%.

On to `CC(NC(=O)CCCCCN1C(=O)C=CC1=O)C(=O)NC(C)C(=O)NC(CC(N)=O)C(=O)Nc1ccc(COC(=O)N2CC3(C2)C(=O)[O][Pt-2]([NH3+])([NH3+])[O]C3=O)cc1` (centres unmarked) [QHL-140-N-CBP], for which the solubility in data set [2] is above 10000 µg/mL. In the data set with M2 macrophages, the “Inhibition rate of M2 macrophages” value turned out to be 89.5%.

On to `COc1cccc2c1C(=O)c1c(O)c3c(c(O)c1C2=O)C[C@@](O)(C(=O)CO)C[C@@H]3O[C@H]1C[C@H](NC(=O)[C@H](CC(C)C)NC(=O)[C@H](CC(N)=O)NC(=O)[C@H](C)NC(=O)[C@H](C)NC(=O)CCOCCOCCOCCN2C(=O)C=CC2=O)[C@H](O)[C@H](C)O1` [QHL-010-DOX] (X1-AANL-{Doxorubicin(3'-N)}), for which the “Tumor volume (mm^3) Day 28” value (in data set [1] (setting [5]); in the data set on HT1080 tumors (setting [6])) was 0 mm^3 throughout. In addition, in data set [1] (setting [4]), the inhibition in vivo at 54 µmol/kg turned out to be 100%. For the same compound, the inhibition in vivo at 36 µmol/kg in the data set on HT1080 tumors (HT-1080, iv, 672 h) stood at 100%. Moreover, the “growth inhibition of tumor, outcome in words” value in the data set on HT1080 tumors (compared with equimolar dose AANL-DOX) is reported as “the tumor disappeared”.
